The results in this text go back to patent US11795147B2, “Modulators of complex I” (Boehringer Ingelheim International GmbH, priority 2019, dated 2023).

For orientation: IC50 means the concentration needed to halve the response being measured.

Molecules are shown by their SMILES.

In the first assay the target is Complex I. The assay is described as follows: Assay A: Determination of Complex I mediated ROS-inhibition (CI). The following applies: read-out: CI IC50; ROS generation by Complex I purified from bovine heart, Amplex Red/horse radish peroxidase readout, 8 point concentration-response. The format is biochemical.
On to `CC(C)Nc1ccc2c(c1)/C(=C1\CN(C3CCOCC3)CCN1)C(=O)N2C1CCOCC1` [Compound 24], for which the IC50 is 48 nM. On the same count and under the same terms, for `CCC(CC)Nc1ccc2c(c1)/C(=C1\COCCN1)C(=O)N2C(C)C` [Compound 171] the value was 206 nM.

`CC(=O)N1CCC(Nc2ccc3c(c2)/C(=C2\COCCN2)C(=O)N3C(C)C)CC1` [Compound 172]: the IC50 is 78 nM.

In the case of `CC(C)CNc1ccc2c(c1)/C(=C1\COCCN1)C(=O)N2C(C)C` [Compound 173], the IC50 came out at 367 nM. In the case of `CC1OCCC1Nc1ccc2c(c1)/C(=C1\COCCN1)C(=O)N2C1CCOCC1` (centres unmarked) [Compound 174], the IC50 worked out at 39 nM. Still for that read-out and setting: the result for `O=C1/C(=C2/COCCN2)c2cc(NC3COC3)ccc2N1C1CCOCC1` [Compound 175] reads 97 nM.

For the next assay, the system named is HT-22 cells.
Assay: not given
The format is cell-based, mice. Particulars: Mus musculus, HT-22, 16 h, read-out: HT22 IC50.
For `CCOC(=O)N1CCC(N2C(=O)/C(=C3/COCCN3)c3cc(N4C(C)CCC4C)ccc32)CC1` (centres unmarked) [Compound 11], the IC50 was 38 nM. Same read-out and setting: for `Nc1ccc2c(c1)/C(=C1/NCCN(C(=O)OCc3ccccc3)C1O)C(=O)N2C1CCNCC1` (centres unmarked) [Compound 87] the value was 1000 nM; for `CC(C)Nc1ccc2c(c1)/C(=C1\COCCN1)C(=O)N2C1CCN(C(C)C)CC1` [Compound 92], 44 nM. In the case of `CN1CCC(N2C(=O)/C(=C3/CCCN3)c3cc(N(C)C)ccc32)CC1` [Compound 109], the IC50 is 160 nM.

The assay is the same for the next values; noted with them: Mus musculus; protection of HT-22 cells from glutamate (5 mM) induced cell death, 16 hours, Alamar Blue viability; read-out: HT22 IC50.
As for `CC(C)Nc1ccc2c(c1)/C(=C1\CN(C3CCOCC3)CCN1)C(=O)N2C1CCOCC1` [Compound 24], the IC50 was 123 nM.
